# Experimental data from paper PMC6406525, “A Biophysical Approach to the Identification of Novel ApoE Chemical Probes” (Biomolecules, 2019).
# How the values were obtained:
# Assay type in all cases: binding
# ApoE2 = biological target: T1, ApoE2 (Homo sapiens, UniProt P02649, R176C); assay: isothermal titration calorimetry (protein injected into compound)
# T1 construct: gene APOE; His6-thioredoxin tag removed by HRV 3C protease; E. coli Rosetta2(DE3)
# Description: isothermal titration calorimetry (protein injected into compound) on ApoE2
# ApoE3 = biological target: T2, ApoE3 (Homo sapiens, UniProt P02649); assay: as above
# T2 construct: gene APOE; His6-thioredoxin tag removed by HRV 3C protease; E. coli Rosetta2(DE3)
# Description: isothermal titration calorimetry (protein injected into compound) on ApoE3
# ApoE4 [1] = biological target: T3, ApoE4 (Homo sapiens, UniProt P02649, C130R); assay: as above
# T3 construct: gene APOE; full-length mature ApoE4, codon-optimized gene in pET17b; His6-thioredoxin tag removed by HRV 3C protease; E. coli Rosetta2(DE3)
# ApoE4 [2] = biological target: T3, ApoE4; assay: microscale thermophoresis (Red-NHS labelled ApoE4, initial fluorescence)
# Description: microscale thermophoresis (Red-NHS labelled ApoE4, initial fluorescence) on ApoE4
# T3 sequence (P02649 19-317 C130R): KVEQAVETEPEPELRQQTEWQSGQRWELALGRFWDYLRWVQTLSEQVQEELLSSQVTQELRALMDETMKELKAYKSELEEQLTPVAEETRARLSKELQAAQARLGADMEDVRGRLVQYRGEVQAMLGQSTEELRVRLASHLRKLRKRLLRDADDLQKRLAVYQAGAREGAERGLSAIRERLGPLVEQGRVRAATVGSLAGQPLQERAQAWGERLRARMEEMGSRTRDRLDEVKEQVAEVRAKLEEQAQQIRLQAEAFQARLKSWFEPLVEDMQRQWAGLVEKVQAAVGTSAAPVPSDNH
# T2 sequence (P02649 19-317): as the sequence (P02649 19-317 C130R) above, with R112C counted along it
# T1 sequence (P02649 19-317 R176C): as the sequence (P02649 19-317 C130R) above, with R112C, R158C counted along it
Kd (ApoE2) [µM],Kd (ApoE3) [µM],Kd (ApoE4 [1]; read-out: ApoE4) [µM],Kd (ApoE4 [1]; read-out: binding affinity) [µM],Kd (ApoE4 [2]) [µM],SMILES
67 ± 36,24 ± 9,15 ± 10,–,–,CCN(CC)CCOc1ccc(C(=C(Cl)c2ccccc2)c2ccccc2)cc1 [Clomifene]
33 ± 10,20 ± 3,18 ± 12,–,–,N[C@@H](Cc1cc(I)c(Oc2cc(I)c(O)c(I)c2)c(I)c1)C(=O)O [L-Thyroxine]
47 ± 32,47 ± 9,45 ± 13,–,–,Cc1ccc(Cl)c(Nc2ccccc2C(=O)O)c1Cl [Meclofenamic acid]
55 ± 14,119 ± 50,38 ± 4,–,–,O=C(O)c1cc2ccccc2c(Cc2c(O)c(C(=O)O)cc3ccccc23)c1O [Pamoic acid]
–,–,–,3 ± 0.4,–,Cc1ccc(C(=O)Nc2ccc(S(=O)(=O)O)c3cc(S(=O)(=O)O)cc(S(=O)(=O)O)c23)cc1NC(=O)c1cccc(NC(=O)Nc2cccc(C(=O)Nc3cc(C(=O)Nc4ccc(S(=O)(=O)O)c5cc(S(=O)(=O)O)cc(S(=O)(=O)O)c45)ccc3C)c2)c1 [Suramin]
6 ± 2,8 ± 1,8 ± 2,–,–,O=C(O)c1ccc2nc(-c3cc(Cl)cc(Cl)c3)oc2c1 [Tafamidis]
–,–,–,–,67 ± 19,CC/C(=C(\c1ccccc1)c1ccc(OCCN(C)C)cc1)c1ccccc1 [Tamoxifen]
–,–,–,–,44 ± 6,CN(C)CCOc1ccc(/C(=C(/CCCl)c2ccccc2)c2ccccc2)cc1 [Toremifene]
